From BindingDB's records for doi:10.1016/j.bmc.2007.03.014 (Universit&#233, 2007)
pEC50: −log10 of the molar value.

Assay: Reversal of P-gp-mediated multidrug resistance to vinblastine in human CEM/VLB500 cells after 3 days by resazurin assay

Row | Compound | pEC50
1 | COc1ccc(CCN2CCC[C@@H]2CNC(=O)c2ccccc2NC(=O)c2cnc3ccccc3c2)cc1OC [(R) N-(2-((1-(3,4-dimethoxyphenethyl)pyrrolidin-2-yl)methylcarbamoyl)phenyl)quinoline-3-carboxamide] | 6.32
2 | COc1ccc(CN2CCN(c3ccc(NC(=O)c4cc(OC)c(OC)cc4NC(=O)c4cnc5ccccc5c4)cc3)CC2)cc1OC [N-(2-(4-(4-(3,4-dimethoxybenzyl)piperazin-1-yl)phenylcarbamoyl)-4,5-dimethoxyphenyl)quinoline-3-carboxamide] | 7.23
3 | COc1ccc(CCN2CCC[C@H]2CNC(=O)c2ccccc2NC(=O)c2cnc3ccccc3c2)cc1OC [(S) N-(2-((1-(3,4-dimethoxyphenethyl)pyrrolidin-2-yl)methylcarbamoyl)phenyl)quinoline-3-carboxamide] | 6.48
4 | COc1cc2c(cc1OC)CN(CCc1ccc(NC(=O)c3cc(OC)c(OC)cc3NC(=O)c3cnc4ccccc4c3)cc1)CC2 | 7.17
5 | COc1ccc(CN2CCN(c3ccc(NC(=O)c4ccccc4NC(=O)c4cnc5ccccc5c4)cc3)CC2)cc1OC [N-(2-(4-(4-(3,4-dimethoxybenzyl)piperazin-1-yl)phenylcarbamoyl)phenyl)quinoline-3-carboxamide] | 6.91
6 | O=C(Nc1ccccc1C(=O)N[C@@H]1CCCC[C@@H]1N1CCN(c2ccccc2)CC1)c1cnc2ccccc2c1 (racemic) [rac-cis-N-(2-(2-(4-phenylpiperazin-1-yl)cyclohexylcarbamoyl)phenyl)quinoline-3-carboxamide] | 6.19
